# Where a name gives a salt, the structure may show the parent alone.
# Experiments:
# Assay in all cases: In vitro antibacterial MIC/MBC test
# Assay type in all cases: cell-based
# S. faecalis 4510 = details: Enterococcus faecalis, S. faecalis 4510; for MBC: read-out: MBC; for MIC: read-out: MIC
# Protocol: (§1) Win 52,522 and Win 35,439 were solubilized in 0.1 ml of 0.5 N NaOH/mg of compound and diluted in sterile distilled water to 160 mcg/ml. Vancomycin and methicillin were solubilized in sterile distilled water to 1250 mcg/ml of base compound. The stock solutions were sterilized by filtration through membrane filters with a 0.45 μm pore size.
# (§2) The bacterial cultures listed in Table I (hereinbelow) were grown overnight at 37° C. in MHB for all cultures except the Streptococcus strains. These were grown in BHI+10% NHS. The overnight broth cultures were adjusted to an optical density of 0.10 (650 nm, B L Spectronic 20) in sterile distilled water and subsequently diluted to 6.7×10^6 cells/ml in MHB or BHI+1% NHS.
# (§3) Serial two-fold dilutions of the compound solutions were prepared in MHB (or in BHI+1% NHS for tests with Streptococci) and dispensed into 96-well microtiter trays in a volume of 0.1 ml/well using a Sandy Springs (Bellco Glass Co.) dispenser. The trays were then inoculated with 0.0015 ml of a suspension containing 6.7×10^6 cells/ml of the appropriate inoculum using a MIC-2000 inoculator (Dynatech Corp.) resulting in a final inoculum of approximately 1×10^4 cells/well or 1×10^5 cells/ml. The trays were incubated at 37° C. for 18-20 hours and the minimal inhibitory concentration (MIC), defined as the lowest concentration of compound to inhibit visible bacterial growth, was recorded.
# (§4) After the MIC values were recorded, the contents in the microtiter trays were thoroughly mixed on a Bellco Mini-orbital Shaker (Bellco Glass Co.) for 3 min. at a setting of 8. A portion (0.0015 ml) from each well was then transferred via an MIC-2000 inoculator to plates containing MHA or BHI agar+10% NHS. The plates were incubated at 37° C. for 18-20 hrs. The minimal bactericidal concentration (MBC), defined as the lowest concentration of compound that prevented the formation of a recognizable colony on the agar surface, was recorded.
# S. aureus S-234 = details: Staphylococcus aureus, S234, S. aureus S-234; for MBC: read-out: MBC; for MIC: read-out: MIC
# Protocol: as §1, §2, §3, §4
# S. aureus Glorgio = details: Staphylococcus aureus, S. aureus Glorgio; for MBC: read-out: MBC; for MIC: read-out: MIC
# Protocol: as §1, §2, §3, §4
# S. aureus 41-81 = details: Staphylococcus aureus, 4181, S. aureus 41-81; for MBC: read-out: MBC; for MIC: read-out: MIC
# Protocol: as §1, §2, §3, §4
# S. aureus 39881 = details: Staphylococcus aureus, S. aureus 39881; for MBC: read-out: MBC; for MIC: read-out: MIC
# Protocol: as §1, §2, §3, §4
# S. aureus VA16951 = details: Staphylococcus aureus, S. aureus VA16951; for MBC: read-out: MBC; for MIC: read-out: MIC
# Protocol: as §1, §2, §3, §4
# S. faecalis (11700) = details: Enterococcus faecalis, ATCC11700, S. faecalis ATCC No. 11700; for MBC: read-out: MBC; for MIC: read-out: MIC
# Protocol: as §1, §2, §3, §4
# S. epidermidis 1-5-H = details: Staphylococcus epidermidis, 15H, S. epidermidis 1-5-H; for MBC: read-out: MBC; for MIC: read-out: MIC
# Protocol: as §1, §2, §3, §4
# S. pyogenes 7948-15 = details: Streptococcus pyogenes, 794815, S. pyogenes 7948-15; for MBC: read-out: MBC; for MIC: read-out: MIC
# Protocol: as §1, §2, §3, §4
# S. aureus S-500 = details: Staphylococcus aureus, S500, S. aureus S-500; for MBC: read-out: MBC; for MIC: read-out: MIC
# Protocol: as §1, §2, §3, §4
# S. aureus 4-81 = details: Staphylococcus aureus, 481, S. aureus 4-81; for MBC: read-out: MBC; for MIC: read-out: MIC
# Protocol: as §1, §2, §3, §4
# S. epidermidis (17917) = details: Staphylococcus epidermidis, ATCC17917, S. epidermidis ATCC No. 17917; for MBC: read-out: MBC; for MIC: read-out: MIC
# Protocol: as §1, §2, §3, §4
# S. aureus 13-8-A = details: Staphylococcus aureus, 138A, S. aureus 13-8-A; for MBC: read-out: MBC; for MIC: read-out: MIC
# Protocol: as §1, §2, §3, §4
# S. aureus 24-81 = details: Staphylococcus aureus, 2481, S. aureus 24-81; for MBC: read-out: MBC; for MIC: read-out: MIC
# Protocol: as §1, §2, §3, §4
# S. epidermidis 1-3-H = details: Staphylococcus epidermidis, 13H, S. epidermidis 1-3-H; for MBC: read-out: MBC; for MIC: read-out: MIC
# Protocol: as §1, §2, §3, §4
# S. pneumoniae Type III = details: Streptococcus pneumoniae, S. pneumoniae Type III; for MBC: read-out: MBC; for MIC: read-out: MIC
# Protocol: as §1, §2, §3, §4
# S. epidermidis (12228) = details: Staphylococcus epidermidis, ATCC12228, S. epidermidis ATCC No. 12228; for MBC: read-out: MBC; for MIC: read-out: MIC
# Protocol: as §1, §2, §3, §4
# S. faecalis (8043) = details: Enterococcus faecalis, ATCC8043, S. faecalis ATCC No. 8043; for MBC: read-out: MBC; for MIC: read-out: MIC
# Protocol: as §1, §2, §3, §4
# S. pyogenes (89) = details: Streptococcus pyogenes, S. pyogenes SWRI No. 89; for MBC: read-out: MBC; for MIC: read-out: MIC
# Protocol: as §1, §2, §3, §4
# S. aureus 34-81 = details: Staphylococcus aureus, 3481, S. aureus 34-81; for MBC: read-out: MBC; for MIC: read-out: MIC
# Protocol: as §1, §2, §3, §4
# S. aureus (25923) = details: Staphylococcus aureus, ATCC25923, S. aureus ATCC No. 25923; for MBC: read-out: MBC; for MIC: read-out: MIC
# Protocol: as §1, §2, §3, §4
compound,measurement,setting,value
"COc1cccc(OC)c1C(=O)N[C@@H]1C(=O)N2[C@@H]1SC(C)(C)[C@@H]2C(=O)O [Methicillin, 6-(2,6-dimethoxybenzamido)penicillanic acid sodium salt]",MBC,S. faecalis 4510,64 µg/mL
same,MIC,S. faecalis 4510,64 µg/mL
same,MBC,S. aureus S-234,32 µg/mL
same,MIC,S. aureus S-234,8 µg/mL
same,MBC,S. aureus Glorgio,4 µg/mL
same,MIC,S. aureus Glorgio,2 µg/mL
same,MBC,S. aureus 41-81,1 µg/mL
same,MIC,S. aureus 41-81,1 µg/mL
same,MBC,S. aureus 39881,> 125 µg/mL
same,MIC,S. aureus 39881,125 µg/mL
same,MBC,S. aureus VA16951,8 µg/mL
same,MIC,S. aureus VA16951,4 µg/mL
same,MBC,S. faecalis (11700),64 µg/mL
same,MIC,S. faecalis (11700),64 µg/mL
same,MBC,S. epidermidis 1-5-H,2 µg/mL
same,MIC,S. epidermidis 1-5-H,1 µg/mL
same,MBC,S. pyogenes 7948-15,0.125 µg/mL
same,MIC,S. pyogenes 7948-15,0.25 µg/mL
same,MBC,S. aureus S-500,32 µg/mL
same,MIC,S. aureus S-500,8 µg/mL
same,MBC,S. aureus 4-81,2 µg/mL
same,MIC,S. aureus 4-81,2 µg/mL
same,MBC,S. epidermidis (17917),4 µg/mL
same,MIC,S. epidermidis (17917),4 µg/mL
same,MBC,S. aureus 13-8-A,2 µg/mL
same,MIC,S. aureus 13-8-A,1 µg/mL
same,MBC,S. aureus 24-81,2 µg/mL
same,MIC,S. aureus 24-81,1 µg/mL
same,MBC,S. epidermidis 1-3-H,4 µg/mL
same,MIC,S. epidermidis 1-3-H,2 µg/mL
same,MBC,S. pneumoniae Type III,0.125 µg/mL
same,MIC,S. pneumoniae Type III,0.125 µg/mL
same,MBC,S. epidermidis (12228),4 µg/mL
same,MIC,S. epidermidis (12228),4 µg/mL
same,MBC,S. faecalis (8043),> 125 µg/mL
same,MIC,S. faecalis (8043),> 125 µg/mL
same,MBC,S. pyogenes (89),≤ 0.06 µg/mL
same,MIC,S. pyogenes (89),≤ 0.06 µg/mL
same,MBC,S. aureus 34-81,2 µg/mL
same,MIC,S. aureus 34-81,1 µg/mL
same,MBC,S. aureus (25923),2 µg/mL
same,MIC,S. aureus (25923),2 µg/mL
"CCn1cc(C(=O)O)c(=O)c2ccc(-c3cc(C)nc(C)c3)cc21 [Win 35,439, 1-ethyl-1,4-dihydro-7-(2,6-dimethyl-4-pyridinyl)-4-oxo-3-quinolinecarboxylic acid]",MBC,S. faecalis 4510,0.5 µg/mL
same,MIC,S. faecalis 4510,0.5 µg/mL
same,MBC,S. aureus S-234,0.125 µg/mL
same,MIC,S. aureus S-234,0.06 µg/mL
same,MBC,S. aureus Glorgio,0.125 µg/mL
same,MIC,S. aureus Glorgio,0.03 µg/mL
same,MBC,S. aureus 41-81,0.25 µg/mL
same,MIC,S. aureus 41-81,0.06 µg/mL
same,MBC,S. aureus 39881,0.06 µg/mL
same,MIC,S. aureus 39881,0.06 µg/mL
same,MBC,S. aureus VA16951,0.06 µg/mL
same,MIC,S. aureus VA16951,0.06 µg/mL
same,MBC,S. faecalis (11700),1 µg/mL
same,MIC,S. faecalis (11700),1 µg/mL
same,MBC,S. epidermidis 1-5-H,0.25 µg/mL
same,MIC,S. epidermidis 1-5-H,0.25 µg/mL
same,MBC,S. pyogenes 7948-15,> 16 µg/mL
same,MIC,S. pyogenes 7948-15,4 µg/mL
same,MBC,S. aureus S-500,0.25 µg/mL
same,MIC,S. aureus S-500,0.125 µg/mL
same,MBC,S. aureus 4-81,0.125 µg/mL
same,MIC,S. aureus 4-81,0.06 µg/mL
same,MBC,S. epidermidis (17917),0.5 µg/mL
same,MIC,S. epidermidis (17917),0.5 µg/mL
same,MBC,S. aureus 13-8-A,0.125 µg/mL
same,MIC,S. aureus 13-8-A,0.06 µg/mL
same,MBC,S. aureus 24-81,0.125 µg/mL
same,MIC,S. aureus 24-81,0.06 µg/mL
same,MBC,S. epidermidis 1-3-H,0.25 µg/mL
same,MIC,S. epidermidis 1-3-H,0.25 µg/mL
same,MBC,S. pneumoniae Type III,4 µg/mL
same,MIC,S. pneumoniae Type III,4 µg/mL
same,MBC,S. epidermidis (12228),0.25 µg/mL
same,MIC,S. epidermidis (12228),0.25 µg/mL
same,MBC,S. faecalis (8043),2 µg/mL
same,MIC,S. faecalis (8043),1 µg/mL
same,MBC,S. pyogenes (89),> 16 µg/mL
same,MIC,S. pyogenes (89),4 µg/mL
same,MBC,S. aureus 34-81,0.06 µg/mL
same,MIC,S. aureus 34-81,0.06 µg/mL
same,MBC,S. aureus (25923),0.125 µg/mL
same,MIC,S. aureus (25923),0.125 µg/mL

# Source: patent US4698350A, “1-ethyl-6-fluoro-1,4-dihydro- 7-(2,6-dimethyl-4-pyridinyl)-4-oxo-3-quinolinecarboxylic acid and antibacterial use thereof” (Sterling Drug Inc., priority 1984, dated 1987)
